Values of other authors in publication PMC3527451, “A Pilot Randomized, Placebo Controlled, Double Blind Phase I Trial of the Novel SIRT1 Activator SRT2104 in Elderly Volunteers” (PLoS ONE, 2012).

Test system: DIO mice and ob/ob mice
Details: e.g. DIO and Lep ob/ob obese mice; cited from earlier work

For `Oc1ccc(/C=C/c2cc(O)cc(O)c2)cc1` [resveratrol, reference compound], which “cholesterol, LDL and triglycerides in preclinical models of dyslipidemia, diabetes and obesity” value is on record?
The value was “lower cholesterol, LDL and triglycerides”.
